In patent publication US20230174556A1, “COMPOUNDS AS PROTEIN KINASE INHIBITORS” (Fochon Biosciences, Ltd., priority 2020, published 2023):

Tested on: OCI-LY10 (PI3Kδ dependent) cells
Assay: OCI-LY10 cell proliferation assay (MTS)
Type: cell-based
Details: inhibition of OCI-LY10 cells proliferation, 72 h incubation, MTS readout at 490 nm
Description: MTS testing kit was purchased from Promega (Madison, WI, USA). The RPMI-1640, Fetal bovine serum and Penicillin-Streptomycin were purchased from BI (Biological Industries, Beit Haemek, Israel). Dimethyl sulfoxide (DMSO) was purchased from Sigma (St. Louis., MO, USA). OCI-LY10 cells were cultured in RPMI1640 supplemented with Penicillin-Streptomycin and 10% FBS.
To investigate whether a compound is able to inhibit the activity of PI3Kδ in cells, a mechanism-based assay using OCI-LY10 (PI3Kδ dependent) cells was developed. In this assay, inhibition of PI3Kδ was detected by the inhibition of OCI-LY10 cells proliferation. Cells were plated into 96-well plates at a density of 10000 cells/well. Plates were incubated at 37° C., with 5 % CO2 for 4 h. Compounds were serially diluted and added to the plates with the final compound concentrations as 10000, 3333.3, 1111.1, […], 123.5, 41.2, 13.7, 4.6 and 1.5 nM. Plates were incubated at 37° C., with 5 % CO2 for 72 h. 20 µl MTS was added into each well and the plates were incubated at 37° C., with 5 % CO2 for exactly 2 h. The absorbance was measured by a microplate reader at 490 nm. IC50 was calculated using GraphPad Prism 5.0 software.

IC50: 1 nM
Substance: (S)-N-(5-(4-amino-1-(1-(3-methyl-5-o xo-6-phenyl-5H-thiazolo[3,2-α]pyridin -7-yl)ethyl)-1H-pyrazolo[3,4-d]pyrimi din-3-yl)-2-methoxypyridin-3-yl)meth anesulfonamide [Example 76]
